One assay addresses EGFR wildtype (WT) (Homo sapiens, UniProt P00533). Put plainly: Biochemical EGFR kinase inhibition assay (Lance Ultra TR-FRET), wildtype. A digest of the protocol:
(§1)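 Enzyme reactions lasted 1 hour at room temperature with test compounds between 0.003 and 10 μM, followed by 10 mM EDTA quench.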

The target in a further assay is EGFR L858R/T790M/C797S (Homo sapiens, UniProt P00533, C797S/L858R/T790M). Put plainly: Biochemical EGFR kinase inhibition assay (Lance Ultra TR-FRET), triple mutant L858R/T790M/C797S. In outline:
as §1

A further assay has as its target EGFR L858R/C797S (Homo sapiens, UniProt P00533, C797S/L858R). Put plainly: Biochemical EGFR kinase inhibition assay (Lance Ultra TR-FRET), double mutant L858R/C797S. In outline:
as §1

The next assay has as its target EGFR Del19/T790M/C797S (Homo sapiens, UniProt P00533, C797S/DEL746-750/T790M). Put plainly: Biochemical EGFR kinase inhibition assay (Lance Ultra TR-FRET), triple mutant del19/T790M/C797S. In outline:
as §1

A further assay deals with EGFR Del19/C797S (Homo sapiens, UniProt P00533, C797S/DEL746-750). Put plainly: Biochemical EGFR kinase inhibition assay (Lance Ultra TR-FRET), double mutant del19/C797S. A digest of the protocol:
as §1

Where [1] appears, read: Km ATP, read-out: IC50 WT (nM), Km ATP.
Where [2] appears, read: IC50 L858R/T790M/C797S (nM), 100 μM ATP.
The mark [3] stands for this setting: Km ATP, read-out: IC50 L858R/T790M/C797S (nM), Km ATP.
[4] abbreviates: IC50 L858R/C797S (nM), 100 μM ATP.
The mark [5] stands for this setting: Km ATP, read-out: IC50 L858R/C797S (nM), Km ATP.
The mark [6] stands for this setting: IC50 Del19/T790M/C797S (nM), 100 μM ATP.
Setting [7] is: Km ATP, read-out: IC50 Del19/T790M/C797S (nM), Km ATP.
[8] abbreviates: IC50 Del19/C797S (nM), 100 μM ATP.
[9] abbreviates: Km ATP, read-out: IC50 Del19/C797S (nM), Km ATP.

This passage reports IC50 results from patent publication US11981658B2, “Substituted aminopyridine compounds as EGFR inhibitors” (YUHAN CORPORATION, priority 2021, dated 2024).

Molecules are shown by their SMILES. Like-named read-outs stand apart in the source and are kept apart here.

Sequence of EGFR Del19/C797S (P00533 with tags, fused parts or gaps DEL746-750/C797S): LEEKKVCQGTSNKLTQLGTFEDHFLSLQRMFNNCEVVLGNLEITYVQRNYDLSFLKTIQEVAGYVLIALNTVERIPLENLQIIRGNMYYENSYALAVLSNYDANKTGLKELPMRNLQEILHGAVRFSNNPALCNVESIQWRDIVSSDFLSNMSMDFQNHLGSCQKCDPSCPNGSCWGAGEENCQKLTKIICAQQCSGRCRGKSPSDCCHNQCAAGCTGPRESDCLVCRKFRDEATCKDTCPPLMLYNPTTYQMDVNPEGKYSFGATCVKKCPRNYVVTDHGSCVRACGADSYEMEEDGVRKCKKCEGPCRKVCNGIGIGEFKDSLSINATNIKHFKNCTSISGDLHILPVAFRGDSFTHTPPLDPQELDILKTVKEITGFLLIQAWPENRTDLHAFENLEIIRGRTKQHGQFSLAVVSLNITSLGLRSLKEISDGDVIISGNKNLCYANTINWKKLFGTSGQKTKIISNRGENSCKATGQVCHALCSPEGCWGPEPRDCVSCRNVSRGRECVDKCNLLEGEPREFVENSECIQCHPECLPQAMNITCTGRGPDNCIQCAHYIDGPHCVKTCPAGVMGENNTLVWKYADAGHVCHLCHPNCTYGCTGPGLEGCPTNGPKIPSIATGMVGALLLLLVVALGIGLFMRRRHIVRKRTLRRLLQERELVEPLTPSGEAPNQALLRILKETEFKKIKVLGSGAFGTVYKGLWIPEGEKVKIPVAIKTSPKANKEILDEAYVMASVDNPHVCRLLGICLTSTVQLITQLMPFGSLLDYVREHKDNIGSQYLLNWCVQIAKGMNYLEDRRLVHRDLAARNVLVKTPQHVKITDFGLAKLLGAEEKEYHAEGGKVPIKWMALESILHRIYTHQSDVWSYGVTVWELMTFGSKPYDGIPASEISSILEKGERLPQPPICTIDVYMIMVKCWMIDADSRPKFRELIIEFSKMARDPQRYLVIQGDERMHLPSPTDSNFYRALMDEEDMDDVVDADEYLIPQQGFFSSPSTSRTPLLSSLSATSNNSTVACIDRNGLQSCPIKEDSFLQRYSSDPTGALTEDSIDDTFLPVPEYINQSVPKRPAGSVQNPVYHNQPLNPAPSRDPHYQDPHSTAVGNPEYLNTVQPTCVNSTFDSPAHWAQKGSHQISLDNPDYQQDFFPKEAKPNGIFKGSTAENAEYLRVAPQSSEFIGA
Sequence of EGFR L858R/T790M/C797S (P00533 25-1210 T790M/C797S/L858R): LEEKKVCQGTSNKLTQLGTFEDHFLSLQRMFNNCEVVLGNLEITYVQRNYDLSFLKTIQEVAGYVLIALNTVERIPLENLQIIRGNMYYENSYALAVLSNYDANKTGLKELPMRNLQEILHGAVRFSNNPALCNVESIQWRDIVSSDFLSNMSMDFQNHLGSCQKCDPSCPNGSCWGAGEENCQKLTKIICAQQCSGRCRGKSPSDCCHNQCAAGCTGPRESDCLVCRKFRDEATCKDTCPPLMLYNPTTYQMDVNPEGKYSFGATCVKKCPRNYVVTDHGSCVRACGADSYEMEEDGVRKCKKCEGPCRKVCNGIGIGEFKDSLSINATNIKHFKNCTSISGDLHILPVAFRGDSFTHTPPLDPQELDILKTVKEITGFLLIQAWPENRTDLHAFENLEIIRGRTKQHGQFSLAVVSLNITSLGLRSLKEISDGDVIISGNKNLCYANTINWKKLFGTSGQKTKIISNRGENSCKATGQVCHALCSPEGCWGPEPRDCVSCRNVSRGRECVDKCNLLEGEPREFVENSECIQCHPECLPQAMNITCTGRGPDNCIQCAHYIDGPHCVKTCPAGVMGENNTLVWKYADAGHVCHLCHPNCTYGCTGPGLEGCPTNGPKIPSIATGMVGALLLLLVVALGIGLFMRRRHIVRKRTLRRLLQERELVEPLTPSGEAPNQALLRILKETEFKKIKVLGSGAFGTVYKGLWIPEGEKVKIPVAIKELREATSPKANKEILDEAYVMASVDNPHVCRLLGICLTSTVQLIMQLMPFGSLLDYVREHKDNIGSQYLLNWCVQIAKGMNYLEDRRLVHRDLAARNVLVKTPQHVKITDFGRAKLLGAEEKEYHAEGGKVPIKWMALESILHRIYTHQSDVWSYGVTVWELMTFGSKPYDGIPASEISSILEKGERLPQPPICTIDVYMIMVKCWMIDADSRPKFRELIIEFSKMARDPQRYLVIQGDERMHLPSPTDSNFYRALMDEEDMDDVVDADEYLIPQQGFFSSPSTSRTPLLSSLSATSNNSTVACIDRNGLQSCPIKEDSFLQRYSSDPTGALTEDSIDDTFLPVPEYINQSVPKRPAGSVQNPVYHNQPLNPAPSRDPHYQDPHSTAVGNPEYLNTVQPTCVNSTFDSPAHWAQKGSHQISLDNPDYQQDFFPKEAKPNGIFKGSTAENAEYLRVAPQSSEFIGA
Sequence of EGFR wildtype (WT) (P00533 25-1210): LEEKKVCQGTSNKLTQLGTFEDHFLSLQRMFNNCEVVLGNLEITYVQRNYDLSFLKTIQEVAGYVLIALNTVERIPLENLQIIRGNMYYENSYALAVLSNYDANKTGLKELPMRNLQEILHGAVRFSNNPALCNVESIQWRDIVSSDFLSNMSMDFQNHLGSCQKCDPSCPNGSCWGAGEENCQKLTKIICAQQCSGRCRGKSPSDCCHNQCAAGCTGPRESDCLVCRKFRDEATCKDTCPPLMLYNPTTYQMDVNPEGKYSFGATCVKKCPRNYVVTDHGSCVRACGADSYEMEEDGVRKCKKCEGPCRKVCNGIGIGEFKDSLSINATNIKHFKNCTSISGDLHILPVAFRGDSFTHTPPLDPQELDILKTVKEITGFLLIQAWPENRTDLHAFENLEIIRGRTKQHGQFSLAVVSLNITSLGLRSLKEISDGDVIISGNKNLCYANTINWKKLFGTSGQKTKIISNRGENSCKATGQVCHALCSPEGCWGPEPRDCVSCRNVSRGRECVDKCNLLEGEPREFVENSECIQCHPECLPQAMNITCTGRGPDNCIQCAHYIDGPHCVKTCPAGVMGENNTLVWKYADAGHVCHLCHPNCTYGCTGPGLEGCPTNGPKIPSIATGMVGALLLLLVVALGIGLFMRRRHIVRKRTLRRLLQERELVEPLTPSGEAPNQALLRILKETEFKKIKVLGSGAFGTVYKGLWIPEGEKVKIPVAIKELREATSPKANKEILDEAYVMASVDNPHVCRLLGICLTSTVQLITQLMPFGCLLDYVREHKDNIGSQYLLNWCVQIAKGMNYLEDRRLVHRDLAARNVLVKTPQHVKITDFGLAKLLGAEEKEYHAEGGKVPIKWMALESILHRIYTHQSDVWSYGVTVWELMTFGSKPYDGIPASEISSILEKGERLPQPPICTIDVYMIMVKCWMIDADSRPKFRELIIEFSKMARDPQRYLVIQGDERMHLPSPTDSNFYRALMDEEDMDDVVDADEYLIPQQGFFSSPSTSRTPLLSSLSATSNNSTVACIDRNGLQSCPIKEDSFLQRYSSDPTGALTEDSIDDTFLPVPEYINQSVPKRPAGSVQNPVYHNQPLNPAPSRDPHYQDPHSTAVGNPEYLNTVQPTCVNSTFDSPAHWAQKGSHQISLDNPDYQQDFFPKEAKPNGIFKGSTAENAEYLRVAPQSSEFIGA
Sequence of EGFR Del19/T790M/C797S (P00533 with tags, fused parts or gaps DEL746-750/T790M/C797S): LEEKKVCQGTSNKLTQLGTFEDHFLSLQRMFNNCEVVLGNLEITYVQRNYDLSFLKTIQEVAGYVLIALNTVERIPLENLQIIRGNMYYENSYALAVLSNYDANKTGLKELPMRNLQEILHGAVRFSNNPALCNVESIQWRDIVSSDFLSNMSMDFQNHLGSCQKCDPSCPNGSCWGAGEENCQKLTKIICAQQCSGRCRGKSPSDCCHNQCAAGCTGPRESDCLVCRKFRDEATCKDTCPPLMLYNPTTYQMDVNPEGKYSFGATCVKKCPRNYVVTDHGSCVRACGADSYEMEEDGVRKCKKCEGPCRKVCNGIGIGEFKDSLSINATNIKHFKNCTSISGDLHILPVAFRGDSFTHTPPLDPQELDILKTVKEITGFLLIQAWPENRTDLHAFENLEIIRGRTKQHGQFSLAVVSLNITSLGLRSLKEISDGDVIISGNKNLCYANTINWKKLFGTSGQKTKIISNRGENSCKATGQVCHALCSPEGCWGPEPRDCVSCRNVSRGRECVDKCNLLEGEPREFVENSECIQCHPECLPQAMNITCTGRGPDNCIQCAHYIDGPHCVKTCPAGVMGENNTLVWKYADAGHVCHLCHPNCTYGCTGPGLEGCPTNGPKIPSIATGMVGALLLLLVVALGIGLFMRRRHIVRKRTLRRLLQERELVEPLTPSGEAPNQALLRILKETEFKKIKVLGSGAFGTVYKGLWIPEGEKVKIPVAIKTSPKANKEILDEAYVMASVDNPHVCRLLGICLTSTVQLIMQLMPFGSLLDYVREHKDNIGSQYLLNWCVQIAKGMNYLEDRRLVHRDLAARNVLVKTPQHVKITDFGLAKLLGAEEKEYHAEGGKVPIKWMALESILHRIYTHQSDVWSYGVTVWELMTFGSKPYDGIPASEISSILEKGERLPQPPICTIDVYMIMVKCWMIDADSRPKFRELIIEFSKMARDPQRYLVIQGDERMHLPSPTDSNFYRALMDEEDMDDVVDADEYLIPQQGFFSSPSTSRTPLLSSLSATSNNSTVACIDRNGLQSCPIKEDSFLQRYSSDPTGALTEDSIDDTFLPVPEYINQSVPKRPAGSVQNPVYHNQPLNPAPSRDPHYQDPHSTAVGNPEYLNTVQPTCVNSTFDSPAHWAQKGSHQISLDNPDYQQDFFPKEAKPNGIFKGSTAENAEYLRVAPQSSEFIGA

On to `CC1(CO)CCN(c2cc(Nc3ccnc(-c4cnn(S(=O)(=O)C5CC5)c4)n3)ncc2C#CC2CCN(S(C)(=O)=O)C2)CC1` (centres unmarked) [Example 401, (1-(2-((2-(1-(Cyclopropylsulfonyl)-1H-pyrazol-4-yl)pyrimidin-4-yl)amino)-5-((1-(methylsulfonyl)pyrrolidin-3-yl)ethynyl)pyridin-4-yl)-4-methylpiperidin-4-yl)methanol], for which the IC50 came to 3010 nM against EGFR wildtype (WT) (IC50 WT (nM), 100 μM ATP); 3.9 nM on EGFR wildtype (WT) (setting [1]); 0.5 nM against EGFR L858R/T790M/C797S (setting [2]); 0.4 nM at EGFR L858R/T790M/C797S (setting [3]); 11.9 nM at EGFR L858R/C797S (setting [4]); 0.8 nM at EGFR L858R/C797S (setting [5]). The IC50 on EGFR Del19/T790M/C797S (setting [6]) came to 0.4 nM; on EGFR Del19/T790M/C797S (setting [7]) it was 0.7 nM; against EGFR Del19/C797S (setting [8]), 0.6 nM; at EGFR Del19/C797S (setting [9]) it was 0.3 nM.

In the case of `O=C(c1ccc(C#Cc2cnc(Nc3ccnc(-c4cnn(S(=O)(=O)C5CC5)c4)n3)cc2N2CCC[C@H](O)C2)cc1)N1CCC(O)CC1` [Example 445, (S)-(4-((6-((2-(1-(Cyclopropylsulfonyl)-1H-pyrazol-4-yl)pyrimidin-4-yl)amino)-4-(3-hydroxypiperidin-1-yl)pyridin-3-yl)ethynyl)phenyl)(4-hydroxypiperidin-1-yl)methanone], the IC50 is over 10000 nM at EGFR wildtype (WT) (IC50 WT (nM), 100 μM ATP); 0.4 nM against EGFR L858R/T790M/C797S (setting [2]); 0.1 nM at EGFR L858R/T790M/C797S (setting [3]); 104 nM against EGFR L858R/C797S (setting [4]); 0.9 nM at EGFR Del19/T790M/C797S (setting [6]); 0.5 nM on EGFR Del19/T790M/C797S (setting [7]). The same molecule gave an IC50 at EGFR Del19/C797S (setting [8]) of 2 nM.

`CC1(CO)CCN(c2cc(Nc3ccnc(-c4cnn(S(=O)(=O)C5CC5)c4)n3)ncc2C#CCC(F)(F)F)CC1` [Example 275, (1-(2-((2-(1-(Cyclopropylsulfonyl)-1H-pyrazol-4-yl)pyrimidin-4-yl)amino)-5-(4,4,4-trifluorobut-1-yn-1-yl)pyridin-4-yl)-4-methylpiperidin-4-yl)methanol]: the IC50 at EGFR wildtype (WT) (ATP at Km, read-out: IC50 WT (nM), Km ATP) was 62.3 nM; against EGFR wildtype (WT) (IC50 WT (nM), 100 μM ATP), over 10000 nM; on EGFR L858R/T790M/C797S (ATP at Km, read-out: IC50 L858R/T790M/C797S (nM), Km ATP) it was 0.8 nM; on EGFR L858R/T790M/C797S (setting [2]), 3.6 nM; on EGFR L858R/C797S (ATP at Km, read-out: IC50 L858R/C797S (nM), Km ATP), 12.3 nM; on EGFR L858R/C797S (setting [4]) it was 118 nM. The IC50 on EGFR Del19/T790M/C797S (ATP at Km, read-out: IC50 Del19/T790M/C797S (nM), Km ATP) is 1 nM; against EGFR Del19/T790M/C797S (setting [6]), 1.7 nM; at EGFR Del19/C797S (ATP at Km, read-out: IC50 Del19/C797S (nM), Km ATP), 4.5 nM; on EGFR Del19/C797S (setting [8]) it was 10.4 nM.

Consider `CN1CCN(Cc2ccc(C#Cc3cnc(Nc4ccnc(-c5cnn(S(=O)(=O)C6CC6)c5)n4)cc3N3CCC4(CCO4)CC3)cc2)CC1` [Example 370, 2-(1-(Cyclopropylsulfonyl)-1H-pyrazol-4-yl)-N-(5-((4-((4-methylpiperazin-1-yl)methyl)phenyl)ethynyl)-4-(1-oxa-7-azaspiro[3.5]nonan-7-yl)pyridin-2-yl)pyrimidin-4-amine], for which the IC50 was over 10000 nM at EGFR wildtype (WT) (IC50 WT (nM), 100 μM ATP); 1.9 nM on EGFR wildtype (WT) (setting [1]); 0.8 nM on EGFR L858R/T790M/C797S (setting [2]); 0.1 nM at EGFR L858R/T790M/C797S (setting [3]); 5.1 nM on EGFR L858R/C797S (setting [4]); 1.4 nM on EGFR L858R/C797S (setting [5]). The IC50 is 0.3 nM on EGFR Del19/T790M/C797S (setting [6]), 0.3 nM at EGFR Del19/T790M/C797S (setting [7]), 0.9 nM against EGFR Del19/C797S (setting [8]) and 0.9 nM at EGFR Del19/C797S (setting [9]).

Take `CN(C)C[C@H]1CC[C@H](COc2cc(Nc3ccnc(-c4cnn(S(=O)(=O)C5CC5)c4)n3)ncc2C#Cc2cccnc2)CC1` [Example 62, 2-(1-(Cyclopropylsulfonyl)-1H-pyrazol-4-yl)-N-(4-(((1r,4r)-4-((dimethylamino)methyl)cyclohexyl)methoxy)-5-(pyridin-3-ylethynyl)pyridin-2-yl)pyrimidin-4-amine]: the IC50 was 7.9 nM on EGFR wildtype (WT) (Km ATP, read-out: IC50 WT (nM) Km ATP); 0.1 nM on EGFR L858R/T790M/C797S (Km ATP, read-out: IC50 L858R/T790M/C797S (nM) Km ATP); 4.9 nM on EGFR L858R/C797S (Km ATP, read-out: IC50 L858R/C797S (nM) Km ATP); 0.2 nM at EGFR Del19/T790M/C797S (Km ATP, read-out: IC50 Del19/T790M/C797S (nM) Km ATP); 0.4 nM at EGFR Del19/C797S (Km ATP, read-out: IC50 Del19/C797S (nM) Km ATP).

Turning to `CNC1CCN(c2cc(Nc3ccnc(-c4cnn(S(=O)(=O)C5CC5)c4)n3)ncc2C#Cc2cnn(C)c2)CC1` [Example 130, 2-(1-(Cyclopropylsulfonyl)-1H-pyrazol-4-yl)-N-(5-((1-methyl-1H-pyrazol-4-yl)ethynyl)-4-(4-(methylamino)piperidin-1-yl)pyridin-2-yl)pyrimidin-4-amine], the IC50 against EGFR wildtype (WT) (IC50 WT (nM), 100 μM ATP) was over 10000 nM; against EGFR L858R/T790M/C797S (setting [2]), 5.1 nM; against EGFR L858R/C797S (setting [4]) it was 68.7 nM; against EGFR Del19/T790M/C797S (setting [6]) it was 1.4 nM; against EGFR Del19/C797S (setting [8]), 107 nM.
